Measurements as given in patent publication US20160022751A1, “NOVEL COMPOSITION FOR TREATING ALZHEIMER'S DISEASE AND IMPROVING COGNITIVE FUNCTION OF ALZHEIMER'S PATIENTS” (GANGNEUNG-WONJU NATIONAL UNIVERSITY INDUSTRY ACADEMY …, priority 2014, published 2016).

Experiments:
TrkA = TrkA gene expression in N2a cells (quantitative RT-PCR); format: cell-based, mouse; details: 24 h, Rd 5 μg/ml, Re 5 μg/ml or Rd/Re each 2.5 μg/ml (FIG. 11)
Protocol: On the other hand, the present inventor investigates the expression level of TrkA gene after treating ginsenoside Rd (5 μg/ml), Re (5 μg/ml) or mixture of Rd/Re (each 2.5 μg/ml) to N2a cells for 24 h, using quantitative RT-PCR method, similar to the method described in the Example 4 (FIG. 11).

acetylcholine = test: Acetylcholine content in culture medium of N2a cells (assay kit); format: cell-based, mouse; details: culture medium of N2a cells, 1, 2.5 and 5 μg/ml, 48 h (FIG. 7F)
Protocol: Further, the present inventor measured contents of acetylcholine in culture medium of N2a cells treated with Rd and/or […] (1, 2.5 and 5 μg/ml) for 48 h using a commercial acetylcholine assay kit (Cell Biolabs, USA), based on the enzyme driven reaction that will detect acetylcholine via acetylcholine esterase enzyme and choline oxidase according to the manufacturer's instruction (FIG. 7F).

ERK = ERK phosphorylation in N2a cells (western blot); format: cell-based, mouse; details: compared with NGF (FIG. 10)
Source text: The cholinergic marker ChAT and VAChT are known activate the ERK and Akt lower level path for cholinergic gene expression (Williams et al., Neurosci. Lett., 413: 110-114, 2007; Madziar et al., J. Neurochem., 107: 1284-1293, 2007) by controlling the NGF-TrkA signaling pathway. Thus, the present inventor investigated whether ginsenosides Rd and Re regulate activity of ERK and Akt in N2a cells using through western blot analysis. Specifically, N2a cells were lysed in 1% radioimmunoprecipitation assay (RIPA) buffer containing protease and phosphatase inhibitors (Roche, Mannheim, Germany) and whole cell lysates were separated by 10% sodium dodecyl sulfate polyacrylamide gel electrophoresis (SDS-PAGE). After electrophoresis, proteins were transferred onto polyvinylidene fluoride (PVDF) membranes and the membranes were blocked with 5% skim milk in Tris-buffered saline solution containing 0.1% Tween-20. The membrane was then immunoblotted with primary antibodies, anti-phospho-Akt, anti-phospho-extracellular signal-regulated protein kinase (ERK), anti-ChAT and anti-f3-actin (Santa Cruz Biotechnology, Santa Cruz, USA), and this was followed by incubation with horseradish peroxidase-conjugated anti-rabbit or anti-mouse secondary antibodies (Stressgen, USA). Blots were developed using an enhanced chemiluminescence (ECL) solution (Thermo, USA).

ChAT = ChAT expression in N2a cells with or without Trk inhibitor K252a; format: cell-based, mouse; details: K252a 50 nM, ginsenoside 5 μg/mL, 48 h (FIG. 12)
Source text: Since NGF-Trk signal pathway upregulates ChAT and VAChT, it is important to know whether ginsenosides Rd and Re regulate Trk activity directly or at least indirectly. Therefore, the inventor investigated whether the expression of ChAT and VAChT was blocked by treating K252a, an inhibitor against protein kinase C (PKC) and Trk together with ginsenoside Rd or Re, in order to determine more closely whether the expression of cholinergic surface markers and the differentiation of neurons by the treatment of ginsenosides Rd and Re are caused whereby they act NGF-TrkA pathway directly. Particularly, N2a cells were treated with or without K252a (50 nM) in the presence of NGF (100 ng/mL), Re (5 μg/mL) or Rd (5 μg/mL) for 48 h. Total RNA and protein lysates were isolated as described in the Example 4-1 (FIG. 12). […] In addition, the present inventor performed quantitative RT-PCR in order to verify whether the treatment of ginsenosides Rd and Re affect the expression of NGF and NGFR in N2a cells.

Aβ42 = test: Passive avoidance trials (PAT) in Aβ42-infused animals; format: in vivo; details: Aβ42 rats administered Rg3 (FIG. 25)
Protocol: Male BALB/c mice (10 weeks old) were purchased from Samtaco (Korea), and were adapted to laboratory conditions (temperature: 20±2° C., relative humidity: 50%, light/dark cycle: 12 h) for 1 week. Five-week-old male Sprague-Dawley rats were obtained from Daehan-Biolink (Korea) for learning and memory testing. The animals (n=5/group) were maintained at a constant temperature (23±2° C.), relative humidity, 55±10%, and 12-h light/dark cycle. The animals were fed a standard rodent chow and purified water ad libitum. Lyophilized Aβ42 (0.5 mg, Bachem Torrance, USA) was resuspended in PBS (pH 7.4) by shaking for 7 days at room temperature to prepare the fibrillar-aggregated Aβ42 (fAβ42). At 10 weeks of age, mice were anesthetized, and 1 μl fAβ42 (350 μM stock concentration) was stereotaxically injected unilaterally into the parietal cortex (anterior 1.7 mm, lateral 1 mm, and ventral 1 mm to the bregma above the hippocampus within 1 min) (Mohajeri et al., J. Biol. Chem., 277: 35460-35465, 2002)
The present inventor performed learning and memory tests using rats in order to investigate whether Rg3 can ameliorate symptoms of Alzheimer's model animals in deed. […] The latency time of stay in the light room from lights-on was recorded following an electric shock (1 mA for 2 s) in the dark compartment. […] The mean time spent to escape onto the platform was recorded.

Row | SMILES | expression of TrkA (TrkA) | acetylcholine production (acetylcholine) | ERK activation (phosphorylation) (ERK) | ChAT expression on co-treatment with K252a compared with single treatment (ChAT) | learning and memory functions, passive avoidance (Aβ42)
1 | CC(C)=CCC[C@](C)(O[C@@H]1O[C@H](CO)[C@@H](O)[C@H](O)[C@H]1O)[C@H]1CC[C@]2(C)[C@@H]1[C@H](O)C[C@@H]1[C@@]3(C)CC[C@H](O[C@@H]4O[C@H](CO)[C@@H](O)[C@H](O)[C@H]4O[C@@H]4O[C@H](CO)[C@@H](O)[C@H](O)[C@H]4O)C(C)(C)[C@@H]3CC[C@]12C [ginsenoside Rd] | increased the expression of TrkA in a dose-dependent manner | increased significantly | could activate ERK and Akt with phosphorylation as much as NGF | inhibited | –
2 | CC(C)=CCC[C@](C)(O[C@@H]1O[C@H](CO)[C@@H](O)[C@H](O)[C@H]1O)[C@H]1CC[C@]2(C)[C@@H]1[C@H](O)C[C@@H]1[C@@]3(C)CC[C@H](O)C(C)(C)[C@@H]3[C@@H](O[C@@H]3O[C@H](CO)[C@@H](O)[C@H](O)[C@H]3O[C@@H]3O[C@@H](C)[C@H](O)[C@@H](O)[C@H]3O)C[C@]12C [ginsenoside Re] | increased the expression of TrkA in a dose-dependent manner | increased significantly | could activate ERK and Akt with phosphorylation as much as NGF | inhibited | –
3 | CC(C)=CCC[C@](C)(O)[C@H]1CC[C@]2(C)[C@@H]1[C@H](O)C[C@@H]1[C@@]3(C)CC[C@H](O[C@@H]4O[C@H](CO)[C@@H](O)[C@H](O)[C@H]4O[C@@H]4O[C@H](CO)[C@@H](O)[C@H](O)[C@H]4O)C(C)(C)[C@@H]3CC[C@]12C [ginsenoside Rg3] | – | – | – | – | maintained learning and memory functions at 4-5 weeks
